Results as given in PubChem BioAssay AID248 (DTP/NCI, 2004).
Where “and” joins values, the source holds several entries; their conditions need not be identical. Equal values may be shown once. Toxic doses and inconclusive results are not listed. Rule as the data show it: active = T/C of 150% or more; inactive = T/C below 125%.

Tested on: L1210 leukemia ip in BDF1 mice, survival T/C
Experiment: NCI In Vivo Anticancer Drug Screen. Data for tumor model L1210 Leukemia (intraperitoneal) in B6D2F1 (BDF1) mice
Conditions: endpoint: mean survival time, higher = longer survival
In short: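 In this screen, tumor-bearing mice given compound are compared to those given vehicle, and their survival values are reported as a treated-to-control quotient.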

[1] = dose: 100.0 mg/kg/injection, schedule: Q04DX003 (ip), vehicle: saline with Tween-80
[2] = dose: 100.0 mg/kg/injection, schedule: Q04DX003 (ip), vehicle: saline
[3] = dose: 200.0 mg/kg/injection, schedule: Q04DX003 (ip), vehicle: saline with Tween-80
[4] = dose: 400.0 mg/kg/injection, schedule: Q04DX003 (ip), vehicle: saline with Tween-80
[5] = dose: 100.0 mg/kg/injection, schedule: Q04DX003 (ip), vehicle: Klucel (hydroxypropylcellulose) (HPC)
[6] = dose: 100.0 mg/kg/injection, schedule: Q01DX001 (ip), vehicle: saline
[7] = dose: 200.0 mg/kg/injection, schedule: Q01DX001 (ip), vehicle: saline
[8] = dose: 400.0 mg/kg/injection, schedule: Q01DX001 (ip), vehicle: saline
[9] = dose: 200.0 mg/kg/injection, schedule: Q04DX003 (ip), vehicle: saline
[10] = dose: 25.0 mg/kg/injection, schedule: Q04DX003 (ip), vehicle: Klucel (hydroxypropylcellulose) (HPC)
[11] = dose: 50.0 mg/kg/injection, schedule: Q04DX003 (ip), vehicle: Klucel (hydroxypropylcellulose) (HPC)
[12] = dose: 100.0 mg/kg/injection, schedule: Q01DX001 (ip), vehicle: Klucel (hydroxypropylcellulose) (HPC)
[13] = dose: 100.0 mg/kg/injection, schedule: Q01DX009 (ip), vehicle: Klucel (hydroxypropylcellulose) (HPC)
[14] = dose: 200.0 mg/kg/injection, schedule: Q01DX001 (ip), vehicle: Klucel (hydroxypropylcellulose) (HPC)
[15] = dose: 400.0 mg/kg/injection, schedule: Q01DX001 (ip), vehicle: Klucel (hydroxypropylcellulose) (HPC)
[16] = dose: 200.0 mg/kg/injection, schedule: Q01DX009 (ip), vehicle: Klucel (hydroxypropylcellulose) (HPC)
[17] = dose: 400.0 mg/kg/injection, schedule: Q01DX009 (ip), vehicle: Klucel (hydroxypropylcellulose) (HPC)
[18] = dose: 100.0 mg/kg/injection, schedule: Q01DX001 (ip), vehicle: carboxymethylcellulose (CMC)
[19] = dose: 200.0 mg/kg/injection, schedule: Q01DX001 (ip), vehicle: carboxymethylcellulose (CMC)
[20] = dose: 400.0 mg/kg/injection, schedule: Q01DX001 (ip), vehicle: carboxymethylcellulose (CMC)
[21] = dose: 12.5 mg/kg/injection, schedule: Q04DX003 (ip), vehicle: Klucel (hydroxypropylcellulose) (HPC)
[22] = dose: 100.0 mg/kg/injection, schedule: Q04DX002 (ip), vehicle: Klucel (hydroxypropylcellulose) (HPC)
[23] = dose: 50.0 mg/kg/injection, schedule: Q01DX009 (ip), vehicle: saline
[24] = dose: 100.0 mg/kg/injection, schedule: Q01DX009 (ip), vehicle: saline
[25] = dose: 200.0 mg/kg/injection, schedule: Q01DX009 (ip), vehicle: saline
[26] = dose: 100.0 mg/kg/injection, schedule: Q01DX009 (ip), vehicle: saline with Tween-80
[27] = dose: 200.0 mg/kg/injection, schedule: Q01DX009 (ip), vehicle: saline with Tween-80
[28] = dose: 200.0 mg/kg/injection, schedule: Q04DX003 (ip), vehicle: Klucel (hydroxypropylcellulose) (HPC)
[29] = dose: 400.0 mg/kg/injection, schedule: Q04DX003 (ip), vehicle: Klucel (hydroxypropylcellulose) (HPC)

Measured: T/C

COC(=O)NC1CC(OC(=O)c2ccc(C)cc2)C(COC(=O)c2ccc(C)cc2)O1 (centres undefined)
inactive: dose: 50.0 mg/kg/injection, schedule: Q04DX003 (ip), vehicle: saline with Tween-80 96 % of control | dose: 66.0 mg/kg/injection, schedule: Q04DX003 (ip), vehicle: saline 94 % of control | [1] 97 % of control | [2] 100 % of control | dose: 150.0 mg/kg/injection, schedule: Q04DX003 (ip), vehicle: saline 95 % of control | [3] 100 % of control | dose: 225.0 mg/kg/injection, schedule: Q04DX003 (ip), vehicle: saline 95 % of control | dose: 337.0 mg/kg/injection, schedule: Q04DX003 (ip), vehicle: saline 103 % of control | [4] 96 % of control

COc1ccccc1OCCOCCN(C)C1CC(C)CCC1C(C)C (centres undefined)
inactive: [5] 98 % of control

CCCOC1=C2CCCCC2CC1 (centres undefined)
inactive: [6] 113 % of control | [7] 113 % of control | [8] 102 % of control

CC1C(=O)OC2CC[N+]3(CC(=O)c4ccc(Br)cc4)CC=C(COC(=O)C(C)(O)C1(C)O)C23 (centres undefined)
inactive: [2] 104 % of control | [9] 102 % of control | dose: 400.0 mg/kg/injection, schedule: Q04DX003 (ip), vehicle: saline 87 % of control

CCOC(=O)c1c[nH]c2nc(SC)[nH]c(=O)c2c1=O
inactive: dose: 25.0 mg/kg/injection, schedule: Q01DX009 (ip), vehicle: Klucel (hydroxypropylcellulose) (HPC) 86 % of control | [10] 104 % of control | dose: 50.0 mg/kg/injection, schedule: Q01DX009 (ip), vehicle: Klucel (hydroxypropylcellulose) (HPC) 93 % of control | [11] 103 % of control | [12] 102 % of control | [13] 101 % of control | [5] 101 % of control | [14] 98 % of control | [15] 107 % of control

CC(SC(C)C(=O)NN=C1CCSCC1)C(=O)NN=C1CCSCC1 (centres undefined)
inactive: dose: 55.0 mg/kg/injection, schedule: Q01DX Z (ip), vehicle: methylcellulose (MC) 104 % of control | dose: 83.0 mg/kg/injection, schedule: Q01DX Z (ip), vehicle: methylcellulose (MC) 91 % of control | dose: 125.0 mg/kg/injection, schedule: Q01DX Z (ip), vehicle: methylcellulose (MC) 114 % of control

COc1cccc(N=Cc2ccc(C=Nc3cccc(OC)c3)cc2)c1
inactive: [13] 89 % of control | [16] 94 % of control | [17] 88 % of control

OC1(C2(O)CCC2)CCC1
inactive: dose: 50.0 mg/kg/injection, schedule: Q01DX001 (ip), vehicle: carboxymethylcellulose (CMC) 98 % of control | [18] 95 % of control | [19] 95 % of control | [20] 101 % of control

Cc1ccc2ccc3ccc(C)nc3c2n1
inactive: [21] 99 % of control | [10] 97 % of control | [11] 101 % of control

Cc1ccncc1C1CCCN1C (centres undefined)
inactive: dose: 25.0 mg/kg/injection, schedule: Q04DX003 (ip), vehicle: saline 94 % of control | dose: 50.0 mg/kg/injection, schedule: Q04DX003 (ip), vehicle: saline 102 % of control | [2] 94 % of control

O=C(O)CCBr
inactive: [6] 93 % of control | [7] 104 % of control

CC1(C)CCC(C)(C)c2cc(Br)ccc21
inactive: [18] 103 % of control | [19] 95 % of control | [20] 95 % of control

BrCCCc1ccccc1
inactive: dose: 75.0 mg/kg/injection, schedule: Q01DX001 (ip), vehicle: saline 95 % of control | dose: 150.0 mg/kg/injection, schedule: Q01DX001 (ip), vehicle: saline 97 % of control

CCC(C)c1cc([N+](=O)[O-])cc([N+](=O)[O-])c1O (centres undefined)
inactive: [21] 95 % of control | [10] 98 % of control | [11] 96 % of control

NNC(=O)CNc1ccccc1Cl
inactive: [22] 112 % of control | dose: 200.0 mg/kg/injection, schedule: Q04DX002 (ip), vehicle: Klucel (hydroxypropylcellulose) (HPC) 108 % of control

COc1ccc(C(=O)OC(c2ccccc2)c2ccccc2)cc1
inactive: [6] 98 % of control | [7] 100 % of control | [8] 89 % of control

O=C1c2cccc3cccc(c23)C(=O)N1CCCCCCCCCCN1C(=O)c2cccc3cccc(c23)C1=O
inactive: dose: 50.0 mg/kg/injection, schedule: Q01DX009 (ip), vehicle: gum acacia 93 % of control | dose: 100.0 mg/kg/injection, schedule: Q01DX009 (ip), vehicle: gum acacia 94 % of control and 89 % of control | dose: 100.0 mg/kg/injection, schedule: Q04DX003 (ip), vehicle: gum acacia 93 % of control | dose: 200.0 mg/kg/injection, schedule: Q04DX003 (ip), vehicle: gum acacia 86 % of control | dose: 400.0 mg/kg/injection, schedule: Q01DX009 (ip), vehicle: gum acacia 89 % of control | dose: 400.0 mg/kg/injection, schedule: Q04DX003 (ip), vehicle: gum acacia 90 % of control

C=CCn1cnc(=N)c2[nH]cnc21
inactive: [23] 94 % of control | [24] 87 % of control | [2] 90 % of control | [25] 93 % of control | [9] 94 % of control

CCN(CC)CC(=O)NC(CCN(C)C)(c1cccc2ccccc12)C(C)C (centres undefined)
inactive: [23] 94 % of control | [24] 112 % of control | [2] 105 % of control | [25] 100 % of control | [9] 105 % of control

CC(=O)N1C(=O)N(Cl)C(=O)C1(C)c1cccs1 (centres undefined)
inactive: [26] 107 % of control | [1] 105 % of control | [27] 101 % of control | [3] 103 % of control | dose: 400.0 mg/kg/injection, schedule: Q01DX009 (ip), vehicle: saline with Tween-80 93 % of control | [4] 106 % of control

O=C(NCCc1cnc[nH]1)C(F)(F)F
inactive: [23] 96 % of control | [24] 96 % of control | [25] 100 % of control

CN1CC2=C(C1)C(N(C(=O)c1ccc(-c3ccccc3)cc1)C(=O)c1ccc(-c3ccccc3)cc1)=NCN2
inactive: [13] 97 % of control | [16] 94 % of control | [17] 94 % of control

Cc1nsc(N(NC(=O)c2ccccc2)C(=O)c2ccccc2)n1
inactive: dose: 75.0 mg/kg/injection, schedule: Q01DX001 (ip), vehicle: carboxymethylcellulose (CMC) 95 % of control

O=C(NCCCl)Nc1ccc(Br)cc1
inactive: [18] 101 % of control | [19] 98 % of control | [20] 115 % of control

CCC(C)C(CN)(CCN(C)CC)c1cccc2ccccc12 (centres undefined)
inactive: [1] 90 % of control

OC(c1ccccc1)c1nnc(C(O)c2ccccc2)nn1 (centres undefined)
inactive: [12] 92 % of control | [5] 94 % of control | [14] 95 % of control | [28] 93 % of control | [15] 95 % of control | [29] 100 % of control

Oc1ccc(C2C=CCC2)cc1C1C=CCC1 (centres undefined)
inactive: [13] 105 % of control | [5] 100 % of control | [16] 100 % of control | [28] 96 % of control | [17] 94 % of control | [29] 109 % of control

Cc1cc(=O)n(C)c2ccccc12
inactive: dose: 50.0 mg/kg/injection, schedule: Q01DX009 (ip), vehicle: saline with Tween-80 97 % of control | [18] 93 % of control | [13] 104 % of control | [26] 101 % of control | [19] 93 % of control | [16] 93 % of control | [27] 94 % of control

O=C(/C=C/c1ccncc1)Nc1ccccc1
inactive: dose: 25.0 mg/kg/injection, schedule: Q04DX002 (ip), vehicle: Klucel (hydroxypropylcellulose) (HPC) 117 % of control | dose: 50.0 mg/kg/injection, schedule: Q04DX002 (ip), vehicle: Klucel (hydroxypropylcellulose) (HPC) 98 % of control | [22] 98 % of control

Nc1ccc(S(=O)(=O)C(Cl)c2ccccc2)cc1 (centres undefined)
inactive: [6] 104 % of control | [7] 102 % of control | [8] 104 % of control
